Source: ChEMBL document CHEMBL5625248, “Identification of unique indolylcyanoethylenyl sulfonylanilines as novel structural scaffolds of potential antibacterial agents” (Eur J Med Chem, 2023)
Converted amounts (≈) assume the structure as drawn.

Legend:
Assay type in all cases: functional
[1] = test system: Klebsiella pneumoniae; experiment: Antibacterial activity against Klebsiella pneumoniae assessed as inhibition of bacterial growth incubated for 18 hrs by two fold broth microdilution assay
[2] = test system: Staphylococcus aureus; experiment: Antibacterial activity against Staphylococcus aureus assessed as inhibition of bacterial growth incubated for 18 hrs by two fold broth microdilution assay
[3] = test system: Staphylococcus aureus; experiment: Antibacterial activity against Staphylococcus aureus ATCC 29213 assessed as inhibition of bacterial growth incubated for 18 hrs by two fold broth microdilution assay
[4] = test system: Staphylococcus aureus; experiment: Antibacterial activity against methicilin-resistant Staphylococcus aureus N315 assessed as inhibition of bacterial growth incubated for 18 hrs by two fold broth microdilution assay
[5] = test system: Escherichia coli; experiment: Antibacterial activity against Escherichia coli ATCC 25922 assessed as inhibition of bacterial growth incubated for 18 hrs by two fold broth microdilution assay
[6] = test system: Enterococcus faecalis; experiment: Antibacterial activity against Enterococcus faecalis assessed as inhibition of bacterial growth incubated for 18 hrs by two fold broth microdilution assay
[7] = test system: Escherichia coli; experiment: Antibacterial activity against Escherichia coli assessed as inhibition of bacterial growth incubated for 18 hrs by two fold broth microdilution assay
[8] = test system: Pseudomonas aeruginosa; experiment: Antibacterial activity against Pseudomonas aeruginosa assessed as inhibition of bacterial growth incubated for 18 hrs by two fold broth microdilution assay
[9] = test system: Staphylococcus aureus; experiment: Antibacterial activity against Staphylococcus aureus ATCC 25923 assessed as inhibition of bacterial growth incubated for 18 hrs by two fold broth microdilution assay
[10] = test system: Pseudomonas aeruginosa; experiment: Antibacterial activity against Pseudomonas aeruginosa ATCC 27853 assessed as inhibition of bacterial growth incubated for 18 hrs by two fold broth microdilution assay
[11] = test system: Acinetobacter baumannii; experiment: Antibacterial activity against Acinetobacter baumannii assessed as inhibition of bacterial growth incubated for 18 hrs by two fold broth microdilution assay

Row | Compound | MIC [1] [µg/mL] | MIC [2] [µg/mL] | MIC [3] [µg/mL] | MIC [4] [µg/mL] | MIC [5] [µg/mL] | MIC [6] [µg/mL] | MIC [7] [µg/mL] | MIC [8] [µg/mL] | MIC [9] [µg/mL] | MIC [10] [µg/mL] | MIC [11] [µg/mL]
1 | CN(C)CCn1cc(/C=C(\C#N)S(=O)(=O)c2ccc(N)cc2)c2ccccc21 | 128 (≈ 324 µM) | 2 (≈ 5.07 µM) | 8 (≈ 20.3 µM) | 128 (≈ 324 µM) | 256 (≈ 649 µM) | 64 (≈ 162 µM) | 128 (≈ 324 µM) | 64 (≈ 162 µM) | 2 (≈ 5.07 µM) | 32 (≈ 81.1 µM) | 16 (≈ 40.6 µM)
2 | CCCCCCn1cc(/C=C(\C#N)S(=O)(=O)c2ccc(NC(C)=O)cc2)c2ccccc21 | 256 (≈ 569 µM) | 256 (≈ 569 µM) | 1 (≈ 2.22 µM) | 32 (≈ 71.2 µM) | 8 (≈ 17.8 µM) | 4 (≈ 8.9 µM) | 8 (≈ 17.8 µM) | 4 (≈ 8.9 µM) | 4 (≈ 8.9 µM) | 8 (≈ 17.8 µM) | 8 (≈ 17.8 µM)
3 | CC(=O)Nc1ccc(S(=O)(=O)/C(C#N)=C/c2cn(CC=C(C)C)c3ccccc23)cc1 | 16 (≈ 36.9 µM) | 4 (≈ 9.23 µM) | 8 (≈ 18.5 µM) | 64 (≈ 148 µM) | 8 (≈ 18.5 µM) | 4 (≈ 9.23 µM) | 8 (≈ 18.5 µM) | 64 (≈ 148 µM) | 8 (≈ 18.5 µM) | 8 (≈ 18.5 µM) | 8 (≈ 18.5 µM)
4 | CC(=O)Nc1ccc(S(=O)(=O)/C(C#N)=C/c2cn(Cc3ccc([N+](=O)[O-])cc3)c3ccccc23)cc1 | 16 (≈ 32 µM) | 256 (≈ 511 µM) | 2 (≈ 4 µM) | 16 (≈ 32 µM) | 64 (≈ 128 µM) | 128 (≈ 256 µM) | 256 (≈ 511 µM) | 128 (≈ 256 µM) | 256 (≈ 511 µM) | 256 (≈ 511 µM) | 64 (≈ 128 µM)
5 | CC(=O)Nc1ccc(S(=O)(=O)/C(C#N)=C/c2cn(CCN3CCOCC3)c3ccccc23)cc1 | 256 (≈ 535 µM) | 128 (≈ 267 µM) | 32 (≈ 66.9 µM) | 32 (≈ 66.9 µM) | 0.5 (≈ 1.04 µM) | 256 (≈ 535 µM) | 64 (≈ 134 µM) | 4 (≈ 8.36 µM) | 32 (≈ 66.9 µM) | 8 (≈ 16.7 µM) | 32 (≈ 66.9 µM)
6 | CCCCCn1cc(/C=C(\C#N)S(=O)(=O)c2ccc(NC(C)=O)cc2)c2ccccc21 | 8 (≈ 18.4 µM) | 128 (≈ 294 µM) | 16 (≈ 36.7 µM) | 256 (≈ 588 µM) | 16 (≈ 36.7 µM) | 256 (≈ 588 µM) | 64 (≈ 147 µM) | 64 (≈ 147 µM) | 8 (≈ 18.4 µM) | 64 (≈ 147 µM) | 64 (≈ 147 µM)
7 | N#C/C(=C\c1c[nH]c2ccccc12)S(=O)(=O)c1ccc(N)cc1 | 1 (≈ 3.09 µM) | 32 (≈ 99 µM) | 32 (≈ 99 µM) | 64 (≈ 198 µM) | 4 (≈ 12.4 µM) | 32 (≈ 99 µM) | 2 (≈ 6.18 µM) | 4 (≈ 12.4 µM) | 128 (≈ 396 µM) | 1 (≈ 3.09 µM) | 8 (≈ 24.7 µM)
8 | CC(=O)Nc1ccc(S(=O)(=O)/C(C#N)=C/c2cn(CCO)c3ccccc23)cc1 | 2 (≈ 4.88 µM) | 2 (≈ 4.88 µM) | 2 (≈ 4.88 µM) | 32 (≈ 78.2 µM) | 1 (≈ 2.44 µM) | 4 (≈ 9.77 µM) | 4 (≈ 9.77 µM) | 4 (≈ 9.77 µM) | 2 (≈ 4.88 µM) | 8 (≈ 19.5 µM) | 32 (≈ 78.2 µM)
9 | CC(=O)Nc1ccc(S(=O)(=O)/C(C#N)=C/c2cn(CC3CC3)c3ccccc23)cc1 | 64 (≈ 153 µM) | 256 (≈ 610 µM) | 64 (≈ 153 µM) | 32 (≈ 76.3 µM) | 32 (≈ 76.3 µM) | 64 (≈ 153 µM) | 16 (≈ 38.1 µM) | 32 (≈ 76.3 µM) | 64 (≈ 153 µM) | 64 (≈ 153 µM) | 16 (≈ 38.1 µM)
10 | N#C/C(=C\c1cn(Cc2ccc(Cl)cc2Cl)c2ccccc12)S(=O)(=O)c1ccc(N)cc1 | 4 (≈ 8.29 µM) | 256 (≈ 531 µM) | 64 (≈ 133 µM) | 256 (≈ 531 µM) | 64 (≈ 133 µM) | 128 (≈ 265 µM) | 256 (≈ 531 µM) | 64 (≈ 133 µM) | 32 (≈ 66.3 µM) | 32 (≈ 66.3 µM) | 16 (≈ 33.2 µM)
11 | CCN(CC)C(=O)Cn1cc(/C=C(\C#N)S(=O)(=O)c2ccc(NC(C)=O)cc2)c2ccccc21 | 64 (≈ 134 µM) | 256 (≈ 535 µM) | 2 (≈ 4.18 µM) | 128 (≈ 267 µM) | 128 (≈ 267 µM) | 128 (≈ 267 µM) | 32 (≈ 66.9 µM) | 32 (≈ 66.9 µM) | 8 (≈ 16.7 µM) | 256 (≈ 535 µM) | 128 (≈ 267 µM)
12 | CCOC(=O)Cn1cc(/C=C(\C#N)S(=O)(=O)c2ccc(NC(C)=O)cc2)c2ccccc21 | 64 (≈ 142 µM) | 128 (≈ 283 µM) | 16 (≈ 35.4 µM) | 256 (≈ 567 µM) | 256 (≈ 567 µM) | 128 (≈ 283 µM) | 32 (≈ 70.9 µM) | 8 (≈ 17.7 µM) | 64 (≈ 142 µM) | 128 (≈ 283 µM) | 128 (≈ 283 µM)
13 | CCCCn1cc(/C=C(\C#N)S(=O)(=O)c2ccc(NC(C)=O)cc2)c2ccccc21 | 8 (≈ 19 µM) | 2 (≈ 4.74 µM) | 8 (≈ 19 µM) | 256 (≈ 607 µM) | 4 (≈ 9.49 µM) | 4 (≈ 9.49 µM) | 64 (≈ 152 µM) | 4 (≈ 9.49 µM) | 1 (≈ 2.37 µM) | 8 (≈ 19 µM) | 1 (≈ 2.37 µM)
